This experiment deals with T1, KRAS G12C 1-169, his-tagged protein, GDP-loaded (Homo sapiens, UniProt P01116, G12C).
T1 construct: KRAS G12C 1-169, his-tagged protein, GDP-loaded
Nature of the experiment: Biochemical assay: covalent modification of KRAS G12C protein measured by mass spectrometry (RapidFire/TOF or Q-Exactive). The conditions noted are these: covalent binding to KRAS G12C. As to the method:
Test compounds are prepared as 10 mM stock solutions in DMSO (Fisher cat # BP-231-100). KRAS G12C 1-169, his-tagged protein, GDP-loaded is diluted to […] in buffer (20 mM Hepes, 150 mM NaCl, 1 mM MgCl2). Compounds are tested for activity as follows:
Compounds are diluted to 50× final test concentration in DMSO in 96-well storage plates. Compound stock solutions are vortexed before use and observed carefully for any sign of precipitation. […] The plate is then resealed with aluminum seal and stored on dry ice until analyzed as described below.
The above described assays are analyzed by mass spectrometry according to one of the following two procedures: […]
After another 30 minute equilibration time, a blank batch (i.e., buffer) is run to ensure equipment is operating properly. […] The method is then run and masses of each individual well recorded. […]
The masses and peak intensities of KRAS G12C protein species are measured using a Dionex RSLCnano system (Thermo Scientific) connected to a Q Exactive Plus mass spectrometer (Thermo Scientific). […]
The mass spectrometer is operated in profile mode at a resolution of 17500, 5 microscans, using 50 msec max injection time and an AGC target of 1e6, and a full mass range from 800-1850 m/z is recorded. […]

The values below come from patent US10428064B2, “Fused-tricyclic inhibitors of KRAS and methods of use thereof” (Araxes Pharma LLC, priority 2015, dated 2019).

SMILES strings stand for the structures.

T1 sequence (P01116 1-169 isoform P01116-2 G12C): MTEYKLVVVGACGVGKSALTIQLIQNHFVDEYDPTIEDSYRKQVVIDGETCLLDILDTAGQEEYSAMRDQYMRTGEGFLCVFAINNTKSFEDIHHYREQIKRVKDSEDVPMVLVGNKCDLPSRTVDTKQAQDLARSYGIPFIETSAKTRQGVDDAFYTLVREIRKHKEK

Turning to `C=CC(=O)N1CCN(c2c3c(nc4c(F)c(-c5c(O)cccc5F)c(Cl)cc24)NC(=O)NC3)CC1` [Compound 1, 5-(4-acryloylpiperazin-1-yl)-7-chloro-9-fluoro-8-(2-fluoro-6-hydroxyphenyl)-3,4-dihydropyrimido [4,5-b]quinolin-2(1H)-one], the Binding % result was “++ (++ indicates binding activity greater than 50%)”.

In the case of `C=CC(=O)N1CCN(c2c3c(nc4c(F)c(-c5c(O)cccc5F)c(Cl)cc24)CCN(C)C3=O)CC1` [Compound 19, 10-(4-acryloylpiperazin-1-yl)-8-chloro-6-fluoro-7-(2-fluoro-6-hydroxyphenyl)-2-methyl-3,4-dihydrobenzo[b] [1,6]naphthyridin-1(2H)-one], the Binding % result is on record as “+ (+ indicates binding activity up to 50%)”.
